According to patent publication US9664696B1, “Compounds for determining the presence of hydrogen sulfide and methods of use” (University of Oregon, priority 2013, dated 2017):
One block for each compound: values may come before it.

How the values were obtained:
[1] = Chemiluminescence selectivity for H2S over reactive sulfur, oxygen, and nitrogen species (RSONS); conditions: for turn on for H2S: chemiluminescence, H2S versus blank
Experimental: (§1) In a septum-sealed cuvette, a solution of the compound (50 μM) and the desired reactive species was incubated in PIPES buffer (50 mM PIPES, 100 mM KCl, pH 7.4) for 60 minutes at 37.0° C. After incubation, 40 μL of 6 M NaOH was added to increase the pH to an optimal level for luminol chemiluminescence. After pH adjustment, 10 μL of 10 U/mL Horseradish Peroxidase (HRP) with 0.2 μM p-iodophenol was added. A background reading was acquired for 60 seconds, after which 50 μL of H2O2 (35%) was added. The sample luminosity at 425 nm was integrated for 300 s after H2O2 addition. The data reported are the average of at least three independent experiments.
The response of chemiluminescent compound precursor 200 and chemiluminescent compound precursor 202 to biologically-relevant reactive sulfur, oxygen, and nitrogen species (RSONS) was also determined. The selectivity of chemiluminescent compound precursor 200 for H2S was determined by adding 33 equivalents of cysteine (Cys), homocysteine (Hcy), N-acetylcysteine (NAC), reduced glutathione (GSH), thiosulfate (S2O3^2−), sulfate (SO4^2−), nitric oxide (NO), nitroxyl (HNO), and nitrite (NO2^−) (FIGS. 10 and 11). […]

[2] = Air sensitivity of the chemiluminescent compound precursors; format: physicochemical
[3] = 1H NMR titration, 1:1 binding model, TBA-Val; conditions: 10.0 mM probe, 0-200 mM amino acid, DMSO-d6, 25.0° C., average of three titrations
Experimental: (§2) A septum-sealed NMR tube was charged with either chemiluminescent compound precursor 200 or 202 (10 mM in 300 μL of DMSO-d6) and aliquots of a DMSO-d6 solution containing 200 mM amino acid mixed with 10 mM of the compound were added using a syringe. The chemical shifts of the aromatic proton resonances were tracked and the data were fitted to a 1:1 binding model.
^1H NMR titrations with tetrabutylammonium valine (TBA-Val) were also performed as a second model system in which the side chain of the amino acid cannot hydrogen bond to the azide. […] The binding affinities measured for TBA-Val are larger than for TBA-Ser (Table 9), which is consistent with the reduced internal competition for intramolecular hydrogen bonding sites in valine. Based on these titration data, and the lower hydrogen bonding ability of thiols by comparison to alcohols, binding affinity of cysteine for chemiluminescent compound precursor 200 and 202 was expected to be between the measured values for serine and valine. Under the general experimental conditions used to measure the selectivity date, a 10^3-10^4 M^−1 binding affinity between Cys/chemiluminescent compound precursor 200 would result in significant generation of the Cys/chemiluminescent compound precursor 200 adduct, which is consistent with the observed erosion in selectivity. […]

[4] = Chemiluminescent H2S detection limit (HRP/H2O2/p-iodophenol); conditions: for chemiluminescent response after H2S-mediated reduction: followed by treatment with HRP and H2O2; for chemiluminescence in the absence of H2S: treatment with HRP and H2O2, by comparison to luminol or isoluminol
Experimental: as §1
In this particular embodiment, the use of a compound for a chemiluminescent testing method is disclosed.
Following the H2S-derived chemiluminescent response of both chemiluminescent compound precursor 200 and chemiluminescent compound precursor 202, the detection limit of each chemiluminescent compound precursor for H2S was determined. After incubating each chemiluminescent compound precursor for 1 hour for different H2S concentrations, the chemiluminescent response was measured after treatment with H2O2/HRP using p-iodophenol as an enhancer. […] Based on the concentration-dependent H2S response and the instrumental background measurements, the H2S detection limit (3σ) of chemiluminescent compound precursor 200 and chemiluminescent compound precursor 202 was determined to be 0.7±0.3 μM and 4.6±2.0 μM, respectively. Although the total brightness of chemiluminescent compound precursor 202 was lower than that of compound 200, both these detection limits were below the reported range of H2S concentrations (20 μM-100 μM) found in mammalian blood.

[5] = 1H NMR titration, 1:1 binding model, TBA-Ser; conditions: 10.0 mM probe, 0-200 mM amino acid, DMSO-d6, 25.0° C., average of three titrations
Experimental: as §2
In addition to computational evidence for the hydrogen-bonding hypothesis, NMR titrations of chemiluminescent compound precursors 200 and 202 were also performed with different amino acids to further validate the model with solution data. Serine was used as a model amino acid because cysteine quickly reduces chemiluminescent compound precursor 200 under typical experimental conditions. […] Similarly, to model the protonation state of the amino acids in water, and also to ensure complete solubility through the course of the titration, the tetrabutylammonium salts of each amino acid were prepared. By titrating tetrabutylammonium serine (TBA-Ser) into independent solutions of chemiluminescent compound precursors 200 and 202, striking changes in the aromatic region of the NMR spectra were observed, consistent with amino acid binding to the hydrazide moiety (FIGS. 34A-34C). […]

[6] = UV-vis titration of 100 with NaSH, absorbance of products; format: physicochemical; parameters: ε413: unit not given here; conditions: PIPES buffer pH 7.4
[7] = Colorimetric selectivity studies, H2S versus amino acids and RSONS
[8] = target: cystathionine γ-lyase (CSE) (Homo sapiens, UniProt P32929); assay: Detection of enzymatically produced H2S from isolated CSE; format: biochemical
Chain of cystathionine γ-lyase (CSE) (P32929 whole entry, species assumed): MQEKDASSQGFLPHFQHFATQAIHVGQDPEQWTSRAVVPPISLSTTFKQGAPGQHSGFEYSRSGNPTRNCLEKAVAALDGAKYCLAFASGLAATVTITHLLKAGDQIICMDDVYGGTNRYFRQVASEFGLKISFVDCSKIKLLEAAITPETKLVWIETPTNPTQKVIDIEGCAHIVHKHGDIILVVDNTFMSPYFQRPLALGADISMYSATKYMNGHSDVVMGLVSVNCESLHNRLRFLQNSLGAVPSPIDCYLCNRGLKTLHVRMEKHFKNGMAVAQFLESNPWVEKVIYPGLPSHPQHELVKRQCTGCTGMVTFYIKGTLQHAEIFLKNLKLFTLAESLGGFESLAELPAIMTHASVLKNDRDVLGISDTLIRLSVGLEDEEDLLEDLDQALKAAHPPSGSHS
Experimental: (§3) In a septum sealed cuvette, the desired reactive species were incubated in PIPES buffer (50 mM PIPES, 100 mM KCl, pH 7.4) at 37.0° C. for 48 hours. After initial incubation, 15 μL of 10 mM chemiluminescent compound precursor 202 in DMSO was added, and allowed to react for 60 min. After incubation, 40 μL of 6 M NaOH was added to increase the pH to an optimal level for luminol chemiluminescence. After pH adjustment, 10 μL of 10 U/mL Horse-radish Peroxidase (HRP) with 0.2 μM p-iodophenol was added. A background reading was acquired for 60 s, after which 50 μL of H2O2 (35%) was added. The sample luminosity at 425 nm was integrated for 40 s after H2O2 addition. The data reported are the average of at least three independent experiments.
CSE is a PLP-dependent enzyme that converts Hcy or Cys to H2S and can be inhibited by β-cyano-L-alanine (BCA).

[9] = system: C6 cells; assay: Detection of endogenously produced H2S in C6 cell lysates; format: cell-based
Experimental: as §3
C6 cells were obtained from ATCC and cultured in Dulbecco's Modified Eagle Medium (DMEM, Cellgro, MediaTek, Inc.) supplemented with 10% fetal bovine serum (FBS, HyClone), and 1% penicillin/streptomycin. Cells were passed and plated into T-75 flasks containing 10 mL of DMEM, and incubated at 37° C. with 5% CO2. For luminescence studies, the cells were washed with 1× phosphate buffered saline (PBS), trypsinized with 5 mL of Trypsin, and then centrifuged to form a cell pellet. The cell pellet was resuspended in 5 mL of 1×PBS and the cells were counted using a Bio RAD TC20 automated cell counter. Cells were centrifuged at 1,000 RPM for 5 minutes at room temperature, placed on ice and lysed using 100 μL of RIPA buffer (pH 7.5 10 mM Tris-HCl, 150 mM NaCl, 1.0% Nonidet P-40, 0.1% SDS, 0.1% sodium deoxycholate) containing protease inhibitor (PhosSTOP, Roche) for every 2×10^6 cells in the pellet. Luminescence measurements on cell lysates were made using 100 μL of lysate solution (2×10^6 cells per experiment) under ambient atmosphere by following the general procedure for enzymatically produced H2S outlined above.
The ability of chemiluminescent compound precursor 202 to detect and quantify endogenously-produced H2S in C6 cells was determined.

[10] = pH 7.4
[11] = pH titration of compound 42 monitored by UV-vis; format: physicochemical; conditions: aqueous 100 mM KCl / 10 mM KOH solution titrated with HCl; absorbance at 534 nm as a function of pH; read-out: apparent pKa of the thiol
Experimental: A 15 mL solution of compound 42 (111 μM) in 100 mM KCl and 10 mM KOH Millipore water was prepared. The pH of the solution was adjusted with 10 M, 5 M, 1 M, 50 mM, or 1 mM solutions of HCl and the pH recorded. At each pH value, an aliquot of the solution was transferred to a cuvette and the UV-vis spectrum was measured. After measurement, the aliquot was returned to the stock solution and the pH was adjusted to the next point in the titration.

[12] = Reactant 2-mercaptoethanol (2-ME)
[13] = Reactant H2S, 33 equivalents, 50 μM compound, 60 min, 37.0° C., pH 7.4
[14] = 30 equivalents of H2S then added, 45 min

air sensitivity [2]: not air-sensitive
Binding Affinities [3]: 3640 ± 270 M⁻¹
Binding Affinities [5]: 380 ± 80 M⁻¹
Structure (SMILES): [N-]=[N+]=Nc1cccc2c(=O)[nH][nH]c(=O)c12 [compound 200, 3-Azidophthalhydrazide]
Normalized Luminescence (CL/CL0) [1, 12]: 6.6 ± 3.2
Normalized Luminescence (CL/CL0) ([1]; Reactant Cys): 81 ± 5
Normalized Luminescence (CL/CL0) ([1]; Reactant GSH): 94 ± 12
Normalized Luminescence (CL/CL0) [1, 13]: 128 ± 16
Normalized Luminescence (CL/CL0) ([1]; Reactant HNO): 9.1 ± 0.2
Normalized Luminescence (CL/CL0) ([1]; Reactant Hcy): 57 ± 3
Normalized Luminescence (CL/CL0) ([1]; Reactant NAC): 37 ± 19
Normalized Luminescence (CL/CL0) ([1]; Reactant NO2): 0.9 ± 0.2
Normalized Luminescence (CL/CL0) ([1]; Reactant ONOO^−): 0.6 ± 0.2
Normalized Luminescence (CL/CL0) ([1]; Reactant S2O^2−): 5.9 ± 1.1
Normalized Luminescence (CL/CL0) ([1]; Reactant SNAP (NO)): 0.05 ± 0.01
Normalized Luminescence (CL/CL0) ([1]; Reactant SO4^2−): 0.8 ± 0.3
turn on for H2S [1]: 128 fold
chemiluminescent response after H2S-mediated reduction [4]: robust chemiluminescent response
chemiluminescence in the absence of H2S [4]: negligible chemiluminescence

air sensitivity [2]: not air-sensitive
chemiluminescent response with CSE in the absence of substrate [8]: no response
chemiluminescent response with CSE and Hcy substrate ([8]; by comparison to CSE alone (p<0.001) or CSE and Hcy inhibited with BCA (p<0.005)): robust response
chemiluminescent response to Hcy, BCA, pyruvate (Pyr) and NH3 ([8]; control experiments without CSE, p<0.005): negligible
Binding Affinities [3]: 3780 ± 370 M⁻¹
Binding Affinities [5]: 260 ± 60 M⁻¹
Structure (SMILES): [N-]=[N+]=Nc1ccc2c(=O)[nH][nH]c(=O)c2c1 [compound 202, 4-Azidophthalhydrazide]
Normalized Luminescence (CL/CL0) [1, 12]: 1.7 ± 0.08
Normalized Luminescence (CL/CL0) ([1]; Reactant Cys): 1.5 ± 0.03
Normalized Luminescence (CL/CL0) ([1]; Reactant GSH): 3.7 ± 0.9
Normalized Luminescence (CL/CL0) [1, 13]: 45 ± 3
Normalized Luminescence (CL/CL0) ([1]; Reactant HNO): 3.3 ± 0.2
Normalized Luminescence (CL/CL0) ([1]; Reactant Hcy): 3.3 ± 0.5
Normalized Luminescence (CL/CL0) ([1]; Reactant NAC): 3.3 ± 0.4
Normalized Luminescence (CL/CL0) ([1]; Reactant NO2): 3.2 ± 0.6
Normalized Luminescence (CL/CL0) ([1]; Reactant ONOO^−): 4.0 ± 0.2
Normalized Luminescence (CL/CL0) ([1]; Reactant S2O^2−): 2.2 ± 0.6
Normalized Luminescence (CL/CL0) ([1]; Reactant SNAP (NO)): 1.5 ± 0.5
Normalized Luminescence (CL/CL0) ([1]; Reactant SO4^2−): 1.5 ± 0.3
Normalized Luminescence (CL/CL0) ([1]; Reactant Toluenethiol (TolSH)): 1.9 ± 0.4
turn on for H2S [1]: 45 fold
chemiluminescent response after H2S-mediated reduction [4]: robust chemiluminescent response
chemiluminescence in the absence of H2S [4]: negligible chemiluminescence
luminescent response in C6 cell lysates lacking CSE substrates [9]: minimal luminescent response
luminescence in C6 cell lysates with Hcy as CSE substrate ([9]; p<0.001 by comparison to lysates lacking substrate): significantly increased luminescence
luminescent response in C6 cell lysates with Hcy and BCA ([9]; p<0.005): abrogated the luminescent response

pKa [11]: 2.6
ε534 ([6]; λmax 534 nm): 19,000±600 M^−1 cm^−1
Structure (SMILES): O=[N+]([O-])c1ccc(S)c2nonc12 [compound 42, 7-Nitrobenzo[c][1,2,5]oxadiazole-4-thiol]

Second part, the compound before the results:

Structure (SMILES): O=[N+]([O-])c1ccc(Sc2ccc([N+](=O)[O-])c3nonc23)c2nonc12 [compound 40, bis(7-Nitrobenzo[c][1,2,5]oxadiazol-4-yl)sulfane]
ε413 ([6]; absorbance at 413 nm): 11,700±100

Structure (SMILES): O=[N+]([O-])c1ccc(Sc2ccc([N+](=O)[O-])c3nonc23)cc1 [compound 116, 4-Nitro-7-(4-nitrophenylthio)benzo[c][1,2,5]oxadiazole]
absorbance peak at 534 nm after initial incubation ([7]; 3 μM compound, 10 equivalents of H2S, glycine, serine, tyrosine, lysine, glutathione, N-acetyl-L-cysteine): only the H2S samples showed the characteristic absorbance peak at 534 nm
H2S response after incubation of GSH and N-acetylcysteine [7, 14]: somewhat eroded
colorimetric response to H2S after incubation with biological nucleophiles [7, 14]: robust colorimetric response to H2S

Structure (SMILES): Cc1cc(=O)oc2cc(N=[N+]=[N-])ccc12 [C-7Az, 7-azido-4-methylcoumarin]
photostability under continuous exposure [10]: probe photoactivation
